In patent US20250057930A1, “ANAPLASTIC LYMPHOMA KINASE (ALK) CANCER VACCINES AND METHODS OF USE THEREOF” (The Children's Medical Center Corporation, priority 2022, published 2025):
pIC50: −log10 of the molar value.

How the values were obtained:
mEml4-Alk cell lines = assay: Cell viability assay (CellTiter-Glo) in mEml4-Alk cell lines; type: cell-based; details: Mus musculus, mEml4-Alk^1, 72 h
Description: (§1) “[…]” is disclosed as SEQ ID NO: 22. […] “[…]” is disclosed as SEQ ID NO: 22.
Cell viability assay was performed in all immortalized mouse cell lines by using CellTiter-Glo (Promega, USA) according to the manufacturer's instructions. […] After 72 h, CellTiter-Glo reagent was added to each well and luminescence output data were taken by GloMax-Multi Detection System (Promega, USA). The correspondent IC50 value for each ALK inhibitor was calculated with GraphPad Prism 9 software (GraphPad, USA).

[1] = system: ALK-rearranged (ALK^+) NSCLC; details: patients with resistance to earlier ALK TKIs; cited from earlier work
[2] = system: mEml4-Alk cell line tumors; assay: mEml4-Alk syngeneic tumors in BALB/c mice; type: in vivo; details: mEml4-Alk cell lines in syngeneic BALB/c mice
Description: as §1
To determine whether these differences in anaplastic lymphoma kinase (ALK)-specific CD8^+ T-cell responses translated into a different anti-tumor activity, mice were treated with either flank or lung tumors with immune checkpoint inhibitors (ICIs). […] Tumor-free mice were then rechallenged to assess ALK-specific CD8^+ T-cell memory response. […] In contrast to flank tumors, ICI was ineffective against Eml4-Alk^[…]-1 (“[…]” disclosed as SEQ ID NO: 22) lung tumors as measured by overall survival (FIG. 3I), and lung tumor histology (FIG. 3J). Systemic ALK-specific CD8^+ T-cell response was analyzed in mice bearing flank or lung tumors. […] It was concluded that the robustness of the spontaneous ALK-specific CD8^+ T-cell response depended on tumor localization and determined the response to immune checkpoint inhibitors (ICIs).
For syngeneic subcutaneous tumor transplantation, a total of 1×10^6 immortalized mouse cells were subcutaneously inoculated into the right dorsal flanks of 8-12 week-old BALB/c mice in 100 μL of phosphate-buffered saline (PBS). […] Tumor volume was measured by caliper measurements every 3 days in a blinded fashion and calculated according to the following equation: H. W^2/2. […]

[3] = system: Ad-EA mice (mEml4-Alk rearranged lung tumor); assay: Lung tumor volume by MRI and survival in Ad-EA mice; type: in vivo, mouse
Description: (§2) EML4-ALK transgenic (Tg) mice, which express the human EML4-ALK (E13;A20, human variant 1) driven by the SP-C promoter (henceforth referred as hEML4-ALK Tg mice), and BALB/c mice infected intratracheally with adenovirus carrying the CRISPR/Cas9 system to induce in vivo the Eml4-Alk rearrangement (E14;A20, mouse variant 1) (henceforth referred as Ad-EA mice). […] In these models, magnetic resonance imaging (MRI) (FIG. 1B) allowed precise cohort stratification and tumor follow-up.
Anatomical T2-weighted coronal images were acquired with a respiratory-triggered multislice fast spin echo RARE sequence (TR=4 s, TE=4.5 ms, Rare Factor (RF)=16, FOV=30 mm^2, Matrix=256×256, slices=16-20, slice thickness=1 mm, 2 averages, providing an in-plane spatial resolution of 117 μm) with a 7T MRI (Bruker Advance III, Ettlingen, Germany) scanner equipped with a quadrature 1H coil. Animals were anesthetized by intraperitoneal injection of a combination of ROMPUN® (Bayer, 5 mg/kg) and ZOLETIL 100® (Laboratoires Virbac, 20 mg/kg); breathing was monitored during acquisition of the MR images with a respiratory sensor (SA Instruments, Inc.). Tumor volumes and numbers of masses calculations were performed by manual segmentation (slice by slice contouring) with ITK-SNAP software (www.itksnap.org).
Syngeneic mice models transplanted with tumor cells were treated intraperitoneally with 200 μg of anti-PD-1 and/or anti-CTLA-4 (clone 9D9, Bioxcell), on days 3, 6, and 9 post-tumor transplantation (3 injections/per mouse).

[4] = system: hEML4-ALK Tg mice (ALK^+ lung tumors); assay: Lung tumor volume by MRI and survival in hEML4-ALK Tg mice; details: crizotinib 40 mg/kg or lorlatinib 2 mg/kg, MRI
Description: as §2
Anatomical T2-weighted coronal images were acquired with a respiratory-triggered multislice fast spin echo RARE sequence (TR=4 s, TE=4.5 ms, Rare Factor (RF)=16, FOV=30 mm^2, Matrix=256×256, slices=16-20, slice thickness=1 mm, 2 averages, providing an in-plane spatial resolution of 117 μm) with a 7T MRI (Bruker Advance III, Ettlingen, Germany) scanner equipped with a quadrature 1H coil. Animals were anesthetized by intraperitoneal injection of a combination of ROMPUN® (Bayer, 5 mg/kg) and ZOLETIL 100® (Laboratoires Virbac, 20 mg/kg); breathing was monitored during acquisition of the MR images with a respiratory sensor (SA Instruments, Inc.). Tumor volumes and numbers of masses calculations were performed by manual segmentation (slice by slice contouring) with ITK-SNAP software (www.itksnap.org). […]

H2-Dd expression = assay: H2-Dd surface expression on MHC-I^low lung tumor escaper cell lines (flow cytometry); type: cell-based, mouse; details: H2-Dd-downregulated cell lines; ADU-S100 50 μM, 24 h
Description: To uncover the mechanisms that would explain this resistance to treatment, ex vivo escaped tumors were isolated from each treatment group. […] To understand whether the observed H2-Dd downregulation was sufficient to impair tumor rejection, tumor cells with high H2-Dd isolated from untreated mice or tumor cells with low H2-Dd isolated from ALK vaccinated mice and treated with ICI were injected. Treatment with ICI induced rejection of tumors with high H2-Dd expression (FIGS. 6D-6E), consistent with previous experiments (FIG. 3E), but not of escaped tumors with low H2-Dd expression (FIGS. 6F-6G). Finally, it was asked whether H2-Dd expression could be restored by Stimulator of IFN genes (STING) signaling that can increase MHC-I expression in other models of lung cancer.
Allophycocyanin (APC)-conjugates H-2D^d-[…] (SEQ ID NO: 22) Dextramer reagents were obtained from Immudex (Immudex, Denmark). […] After washing step, cells were ready to be acquired. When referred, also PD-1 (clone RMP1-30; BV421-PD-1, BD Pharmingen™, USA) expression was evaluated together with dextramer staining, being added together with FITC-CD8. H2-Dd MHC-I expression was measured on relapsed tumors after treatment. […] All cells were acquired in a BD Celesta flow cytometer (BD Bioscience, USA) and analyzed by using the FlowJo software (FlowJo LCC, USA). […]

In the case of `C[C@H]1Oc2cc(cnc2N)-c2c(nn(C)c2C#N)CN(C)C(=O)c2ccc(F)cc21` [lorlatinib], the pIC50 (mEml4-Alk cell lines) is given as 8.93, the average disease control [1] is given as 7 months and the “tumor sensitivity in vivo” value [2] is given as “marked sensitivity”. For the same compound, the “tumor response at the end of treatment” value ([3]; crizotinib 40 mg/kg or lorlatinib 2 mg/kg, MRI) was “almost complete regression of tumors”, the “tumor response by MRI, prolonged treatment” value ([3]; lorlatinib up to 8 weeks, tumors relapsed upon suspension) was “complete remission by MRI” and the “tumor response at the end of treatment” value [4] was “almost complete regression of tumors”.
With `Nc1ncnc2c1ncn2[C@@H]1O[C@@H]2CO[P@](=O)(S)O[C@@H]3[C@H](O)[C@@H](CO[P@@](=O)(S)O[C@H]2[C@H]1O)O[C@H]3n1cnc2c(N)ncnc21` [ADU-S100, reference compound] the H2-Dd expression (H2-Dd expression) was “strongly upregulating H2-Dd expression”.
